Where two headings read alike, the source gives them in different places.
Assays:
Type in all cases: cell-based, human
[1] = system: LOX (lysyl oxidase); test: cells; conditions: Homo sapiens
Procedure: (§1) Methods: The hepatic tri-culture system, including adult primary human hepatocytes (PHHs), endothelial cells and stromal cells, was cultured with and without primary KCs, at a ratio of 1 KC:4 PHH or 1 KC:2 PHH, in a glucocorticoid-containing or -free media. […] MTX or TGF-β1 or […] (LPS) cause hepatic injury. The injury leads to lipid accumulation, lipotoxicity and cytokines are produced. These activate the KCs and the liver sinusoidal endothelial cells (LSEC). Then stromal activation and gene expressions occur, leading to liver fibrosis.
(§2) Following exposure to methotrexate (MTX; 0.1 and 1 μM; Sigma-Aldrich, St. Louis, MO) or TGF-β1 (0.1 and 10 ng/ml; Miltenyi Biotec, Gaithersburg, MD) or vehicle (DMSO; 0.1% v/v), the expression of various genes known to have a role in fibrogenic responses (e.g., LGALS3, LOX, MMP1) was determined. MTX and TGF-β1 are known fibrogenic compounds Cell health was assessed by urea production and LDH release in the medium.
(§3) The experiments were done in a 96-well format according to the details shown below. […] The hepatocytes were from an individual adult lot. The Kupffer cells (KCs) were from an individual adult lot. The seeding density of the Kupffer cells to the hepatocytes was selected to mimic healthy or inflammatory physiological levels (1:4 or 1:2 ratio). The seeding of the KCs occurred on Day 1 of the culture (meaning 24 hours post-hepatocyte plating).
(§4) All hepatocyte plating was performed using TCPM with Dex (1 μM), as above. Four hours after hepatocyte plating, TCCM was added with and without Dex (half of the cultures with Dex, half without.) The media used were those as described above. The medium exchange process was to do 50% media changes following KC plating up until the compound addition.
(§5) Thawing and plating of the hepatocytes was done according to methods as known in the art. The next day (24 hours) after plating the cells, the KCs were added in TCCM with or without Dex (0.1 μM) at a 1:4 or 1:2 ratio to hepatocytes. The next day and subsequent days, 50% volume of medium was changed each day. Starting at day 5 of culture, the compounds tested were added in the 50% medium volume and allowed to go, unchanged, through Day 8 of culture (72 hr treatment); or to 120 hr treatment times. The treatment compounds were methotrexate (0.1 and 1.0 μM) and TGF-β1 (0.1 and 10 ng/ml).
(§6) The cell harvest and analytical endpoints were done as follows. Phase contrast images were captured each day. The media samples were collected for lactate dehydrogenase (LDH) assay at the end of each treatment period (i.e., 72 or 120 hours of treatment with each compound). The results were used to assess cell health. Cell lysates were harvested for gene expression analysis. 2 wells were combined per sample. The treatment samples were analyzed in triplicate. The following genes that have a role in fibrogenic response were observed. LGALS3 (Galectin3); LOX (lysyl oxidase), MMP1 (matrix Metalloproteinase 1); Housekeeping gene (β-actin). The images in FIGS. 44 and 45 are at 200×.

[2] = system: LGALS3 (Galectin3); test: cells; conditions: for fold induction at 0.1 µM / fold induction at 1 µM: Homo sapiens
Procedure: as §1, §2, §3, §4, §5, §6

[3] = system: MMP1 (matrix Metalloproteinase 1); test: cells; conditions: Homo sapiens
Procedure: as §1, §2, §3, §4, §5, §6

[4] = system: genes known to have a role in fibrogenic responses (e.g., LGALS3, LOX, MMP1); test: Fibrogenic response gene expression overall, Example 9; conditions: DEX / no DEX, with / without KCs
Procedure: as §1, §2, §3, §4
Thawing and plating of the hepatocytes was done according to methods as known in the art. The next day (24 hours) after plating the cells, the KCs were added in TCCM with or without Dex (0.1 μM) at a 1:4 or 1:2 ratio to hepatocytes. […]
The cell harvest and analytical endpoints were done as follows. […] The treatment samples were analyzed in triplicate. […]

## CN(Cc1cnc2nc(N)nc(N)c2n1)c1ccc(C(=O)N[C@@H](CCC(=O)O)C(=O)O)cc1 [MTX, methotrexate]
[1]; 72 h, read-out: LOX fold induction Mean, 72 hours, with Dex, No KC, MTX 0.1 μM
  fold induction at 0.1 µM: 1.2
[1]; 72 h, read-out: LOX fold induction Mean, 72 hours, with Dex, No KC, MTX 1 μM
  fold induction at 1 µM: 1.1
[1]; 72 h, read-out: LOX fold induction Mean, 72 hours, with Dex, with KCs, MTX 0.1 μM
  fold induction at 0.1 µM: 1
[1]; 72 h, read-out: LOX fold induction Mean, 72 hours, with Dex, with KCs, MTX 1 μM
  fold induction at 1 µM: 1
[1]; 72 h, read-out: LOX fold induction Mean, 72 hours, without Dex, No KC, MTX 0.1 μM
  fold induction at 0.1 µM: 1.1
[1]; 72 h, read-out: LOX fold induction Mean, 72 hours, without Dex, No KC, MTX 1 μM
  fold induction at 1 µM: 1.1
[1]; 72 h, read-out: LOX fold induction Mean, 72 hours, without Dex, with KCs, MTX 0.1 μM
  fold induction at 0.1 µM: 1.3
[1]; 72 h, read-out: LOX fold induction Mean, 72 hours, without Dex, with KCs, MTX 1 μM
  fold induction at 1 µM: 1.5
[1]; 120 h, read-out: LOX fold induction Mean, 120 hours, with Dex, No KC, MTX 1 μM
  fold induction at 1 µM: 0.8
[1]; 120 h, read-out: LOX fold induction Mean, 120 hours, with Dex, with KCs, MTX 0.1 μM
  fold induction at 0.1 µM: 1
[1]; 120 h, read-out: LOX fold induction Mean, 120 hours, with Dex, with KCs, MTX 1 μM
  fold induction at 1 µM: 1.1
[1]; 120 h, read-out: LOX fold induction Mean, 120 hours, without Dex, No KC, MTX 0.1 μM
  fold induction at 0.1 µM: 1
[1]; 120 h, read-out: LOX fold induction Mean, 120 hours, without Dex, No KC, MTX 1 μM
  fold induction at 1 µM: 1.2
[1]; 120 h, read-out: LOX fold induction Mean, 120 hours, without Dex, with KCs, MTX 0.1 μM
  fold induction at 0.1 µM: 1.4
[1]; 120 h, read-out: LOX fold induction Mean, 120 hours, without Dex, with KCs, MTX 1 μM
  fold induction at 1 µM: 1.5
[1]; read-out: LOX gene expression, 1 μM MTX, presence of KCs, 72 hr and 120 hr
  fold induction at 1 µM: ≥ 1.5
[2]; 72 h, read-out: LGALS3 fold induction Mean, 72 hours, with Dex, No KC, MTX 0.1 μM
  fold induction at 0.1 µM: 1
[2]; 72 h, read-out: LGALS3 fold induction Mean, 72 hours, with Dex, No KC, MTX 1 μM
  fold induction at 1 µM: 1.2
[2]; 72 h, read-out: LGALS3 fold induction Mean, 72 hours, with Dex, with KCs, MTX 0.1 μM
  fold induction at 0.1 µM: 1
[2]; 72 h, read-out: LGALS3 fold induction Mean, 72 hours, with Dex, with KCs, MTX 1 μM
  fold induction at 1 µM: 1.1
[2]; 72 h, read-out: LGALS3 fold induction Mean, 72 hours, without Dex, No KC, MTX 0.1 μM
  fold induction at 0.1 µM: 1.2
[2]; 72 h, read-out: LGALS3 fold induction Mean, 72 hours, without Dex, No KC, MTX 1 μM
  fold induction at 1 µM: 1.2
[2]; 72 h, read-out: LGALS3 fold induction Mean, 72 hours, without Dex, with KCs, MTX 0.1 μM
  fold induction at 0.1 µM: 1.5
[2]; 72 h, read-out: LGALS3 fold induction Mean, 72 hours, without Dex, with KCs, MTX 1 μM
  fold induction at 1 µM: 1.7
[2]; 120 h, read-out: LGALS3 fold induction Mean, 120 hours, with Dex, No KC, MTX 0.1 μM
  fold induction at 0.1 µM: 1.2
[2]; 120 h, read-out: LGALS3 fold induction Mean, 120 hours, with Dex, No KC, MTX 1 μM
  fold induction at 1 µM: 1.1
[2]; 120 h, read-out: LGALS3 fold induction Mean, 120 hours, with Dex, with KCs, MTX 0.1 μM
  fold induction at 0.1 µM: 0.9
[2]; 120 h, read-out: LGALS3 fold induction Mean, 120 hours, with Dex, with KCs, MTX 1 μM
  fold induction at 1 µM: 1.1
[2]; 120 h, read-out: LGALS3 fold induction Mean, 120 hours, without Dex, No KC, MTX 0.1 μM
  fold induction at 0.1 µM: 1.1
[2]; 120 h, read-out: LGALS3 fold induction Mean, 120 hours, without Dex, No KC, MTX 1 μM
  fold induction at 1 µM: 0.2
[2]; 120 h, read-out: LGALS3 fold induction Mean, 120 hours, without Dex, with KCs, MTX 0.1 μM
  fold induction at 0.1 µM: 1.4
[2]; 120 h, read-out: LGALS3 fold induction Mean, 120 hours, without Dex, with KCs, MTX 1 μM
  fold induction at 1 µM: 1.4
[2]; MTX at both concentrations, presence of KCs, 120 hr versus 72 hr
  LGALS3 gene expression: slight decline
[3]; 72 h, read-out: MMP1 fold induction Mean, 72 hours, with Dex, No KC, MTX 0.1 μM
  fold induction at 0.1 µM: 1.2
[3]; 72 h, read-out: MMP1 fold induction Mean, 72 hours, with Dex, No KC, MTX 1 μM
  fold induction at 1 µM: 1.2
[3]; 72 h, read-out: MMP1 fold induction Mean, 72 hours, with Dex, with KCs, MTX 0.1 μM
  fold induction at 0.1 µM: 1.1
[3]; 72 h, read-out: MMP1 fold induction Mean, 72 hours, with Dex, with KCs, MTX 1 μM
  fold induction at 1 µM: 0.9
[3]; 72 h, read-out: MMP1 fold induction Mean, 72 hours, without Dex, No KC, MTX 0.1 μM
  fold induction at 0.1 µM: 0.9
[3]; 72 h, read-out: MMP1 fold induction Mean, 72 hours, without Dex, No KC, MTX 1 μM
  fold induction at 1 µM: 0.7
[3]; 72 h, read-out: MMP1 fold induction Mean, 72 hours, without Dex, with KCs, MTX 0.1 μM
  fold induction at 0.1 µM: 1.2
[3]; 72 h, read-out: MMP1 fold induction Mean, 72 hours, without Dex, with KCs, MTX 1 μM
  fold induction at 1 µM: 1.4
[3]; 72 h, read-out: MMP1 gene expression, 1 μM MTX, presence of KCs, 72 hr only
  fold induction at 1 µM: 1.4
[3]; 120 h, read-out: MMP1 fold induction Mean, 120 hours, with Dex, No KC, MTX 1 μM
  fold induction at 1 µM: 0.7
[3]; 120 h, read-out: MMP1 fold induction Mean, 120 hours, with Dex, with KCs, MTX 0.1 μM
  fold induction at 0.1 µM: 1
[3]; 120 h, read-out: MMP1 fold induction Mean, 120 hours, with Dex, with KCs, MTX 1 μM
  fold induction at 1 µM: 0.6
[3]; 120 h, read-out: MMP1 fold induction Mean, 120 hours, without Dex, No KC, MTX 0.1 μM
  fold induction at 0.1 µM: 0.7
[3]; 120 h, read-out: MMP1 fold induction Mean, 120 hours, without Dex, No KC, MTX 1 μM
  fold induction at 1 µM: 0.7
[3]; 120 h, read-out: MMP1 fold induction Mean, 120 hours, without Dex, with KCs, MTX 0.1 μM
  fold induction at 0.1 µM: 0.7
[3]; 120 h, read-out: MMP1 fold induction Mean, 120 hours, without Dex, with KCs, MTX 1 μM
  fold induction at 1 µM: 0.9
[4]
  culture conditions in which effects on fibrogenic genes were observed: observed on the no DEX treated groups with KCs
